From PMC8294803, “A Roadmap to the Structure-Related Metabolism Pathways of Per- and Polyfluoroalkyl Substances in the Early Life Stages of Zebrafish (Danio rerio)” (Environmental Health Perspectives, 2021)
Where “and” joins values, the source holds several entries; their conditions need not be identical. Equal entries are not always repeated. Entries after “also recorded” stand apart in the source; their conditions may differ. Where two headings read alike, the source gives them in different places.

Key:
zebrafish larvae [1] = experiment: Nontargeted analysis of PFAS metabolites in zebrafish larvae (high-resolution MS); conditions: for Metabolites / hydrolysis products in zebrafish larvae: in vivo, nontargeted analysis; for Profile of metabolites (%): Alcohol / Peak intensity: Alcohol (parent FTOH): zebrafish larvae; for Profile of metabolites (%): Alcohol: Figure 5B; for Peak intensity: Alcohol (parent FTOH): single replicates, Figure 5A
Method: (§1) Zebrafish embryos were collected immediately after spawning, within 1 h, and subsequently transferred to 24-well plates with 1mL of facility water ( 0.036g sea salt, 0.15g sodium bicarbonate in 2L of reverse osmosis water). […] Three well replicates on the same plate were conducted for each concentration of individual chemical. […] Seven batches of experiments were performed to test all 74 PFAS. DMSO controls were incorporated in each batch of exposure experiments. Three replicates were performed for each treatment group, and 20 embryos were used for each replicate. […] For daily replenishment, 2.5mL of old exposure medium were replaced with freshly prepared medium every 24 h from 24 to 96 h post fertilization (hpf). Hatched or dead embryo numbers were recorded every 24 hpf, after which dead embryos were discarded from the growth media. Dead embryos or unhatched embryos were not used for PFAS measurement because the metabolism of PFAS might have been impacted. Zebrafish larvae collection occurred at 120 hpf. First, the larvae were anesthetized by cooling the plate in ice water (0–4°C) for ∼20 min . Then 8–15 larvae in each well were transferred into 1.5-mL tubes. Exposure media was carefully removed, and then the larvae were weighed (wet weight) after blotting excess water with a paper towel. […] Samples were stored at −80 °C until further chemical analysis was performed. Survival rate and hatching rate were calculated by summarizing all the documented data from the whole treatment duration. […] The exposure experiment of PFOSA was repeated using the same procedure as described above.
(§2) Each sample was spiked with 2μL of 0.2μg/mL mass-labeled PFAS mixture. Following this, 500μL of dichloromethane/methanol (2:1, vol/vol) was added to each sample for PFAS extraction. Larvae were then homogenized via ultrasonic probe, followed by 30 min of shaking and 30 min of sonication. Each sample was centrifuged at 14,000×g for 5 min, after which the supernatant was transferred to new tubes. Extraction was repeated once and the two supernatants were combined, evaporated under nitrogen flow, and reconstituted in 200μL of methanol for MS analysis.
(§3) Three microliters of each zebrafish extract was applied to a C18 column ( 1.5μm; 2.1mm×50mm; Thermo Scientific) and analyzed using a Vanquish ultra-HPLC system (Thermo Fisher Scientific) coupled to a Q Exactive high-resolution mass spectrometer (Thermo Fisher Scientific). The sampler and column compartments were maintained at 4°C and 40°C, respectively. The aqueous mobile phase solution (A) consisted of water, whereas the organic mobile phase solution (B) consisted of acetonitrile. […] MS data was acquired in full scan mode (100–1000 m/z, 70,000 mass resolution, 3×10^6 maximum ions collected per 100 ms), and tandem MS (MS/MS) data was recorded by all-ion fragmentation (AIF) mode. Negative and positive ion modes were carried out simultaneously at a 10-min method duration. […] An overview of the analyses conducted on the various PFAS is available in Table S2.
Nontargeted data analysis was accomplished with R scripts that are available on Github (https://github.com/huiUofT/PFASmetabolite). […] The peak features were matched across samples with a mass tolerance of 2.5 ppm and a RT window of 20 s, after RT adjustment. The ratio of abundances of each feature in treatment groups relative to the control group (DMSO) was calculated. The p -values of the difference between two groups were determined by student’s t -tests.

[2] = biological target: T1, recombinant human liver carboxylesterase 1 (hCES1) (Homo sapiens, UniProt P23141); experiment: Hydrolysis of PFAS by recombinant hCES1; format: in vitro ADME; conditions: for concentration of corresponding hydrolysis product detected from parent PFAS, hCES1 / concentration of corresponding hydrolysis product detected from parent PFAS, Control: 10 µM parent PFAS, three replicates; for concentration of corresponding hydrolysis product detected from parent PFAS, hCES1: incubated with hCES1; for concentration of corresponding hydrolysis product detected from parent PFAS, Control: vehicle control group without hCES1; for Concentration of hydrolysis product: from 10μM of parent, 100μg/L hCES1, 37°C; for Parent PFAS, hCES1 (%) / Parent PFAS, Control (%): 10 μM PFAS, single replicates; for Parent PFAS, hCES1 (%): 100 μg/L hCES1, phosphate buffer 37 °C 1 hour, axis %Control; for Parent PFAS, Control (%): without hCES1, phosphate buffer 37 °C 1 hour
T1 construct: purchased Sigma Aldrich
T1 sequence (P23141 18-567): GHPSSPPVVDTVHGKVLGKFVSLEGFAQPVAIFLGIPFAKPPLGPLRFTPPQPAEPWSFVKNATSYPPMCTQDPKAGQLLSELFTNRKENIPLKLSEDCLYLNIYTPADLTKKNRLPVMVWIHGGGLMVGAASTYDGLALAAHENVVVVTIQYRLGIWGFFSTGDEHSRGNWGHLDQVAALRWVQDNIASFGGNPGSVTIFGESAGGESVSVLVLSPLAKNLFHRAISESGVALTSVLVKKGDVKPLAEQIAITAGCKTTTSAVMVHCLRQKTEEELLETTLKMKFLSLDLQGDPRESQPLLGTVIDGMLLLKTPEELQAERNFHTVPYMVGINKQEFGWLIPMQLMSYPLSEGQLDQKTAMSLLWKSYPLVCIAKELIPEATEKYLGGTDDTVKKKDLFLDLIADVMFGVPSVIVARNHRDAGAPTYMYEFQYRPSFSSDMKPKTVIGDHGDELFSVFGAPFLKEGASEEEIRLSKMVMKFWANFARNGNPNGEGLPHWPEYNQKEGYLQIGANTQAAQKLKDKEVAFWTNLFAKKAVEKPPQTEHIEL
Method: Because recombinant zebrafish CES is not available, we decided to use hCES1 to evaluate the structure-related hydrolysis of PFAS. […] In vitro enzymatic activity experiments were carried out for 1 h in 1.5-mL tubes with 100μL phosphate buffer ( 137 mM sodium chloride, 10 mM phosphate buffer, 2.7 mM potassium chloride; pH 7.4) at 37°C with shaking. Reaction mixtures contained different concentrations of PFAS (1, 10, and 50μM ) and 100μg/L hCES1. […] To stop the hydrolysis reaction, four times the volume of ice-cold methanol was added. The hCES1 protein was precipitated out by centrifugation ( 14,000×g , 10 min). The supernatant was transferred to a new tube and analyzed via MS for the analysis of parent compounds and suspected metabolites (i.e., carboxylates).

zebrafish embryos = conditions: for Lethal effects on zebrafish larvae: 5μM, 5 d
zebrafish larvae [3] = experiment: Bioconcentration factors (BCF) of PFAS in zebrafish larvae; conditions: zebrafish larvae; for BCF 0.5µM: 0.5 µM exposure; for BCF 0.5µM / BCF 5µM: 120 hpf, three replicates; for BCF 5µM: 5 µM exposure
Method: as §1, §2, §3
GraphPad Prism (version 7.0.4; GraphPad Software) and R studio (version 1.1.456; R Studio Inc.) software was used, and an ANOVA with Dunnett tests was employed to evaluate the statistical significance of the percentage hatched and mortality rate. Exponential regressions were used to determine the relationships between bioconcentration factor (BCF) and binding affinities ( Kd ) to L-FABP.

[4] = system: liver fatty acid binding protein (L-FABP); set-up: method as in Yang et al. 2020; conditions: ref Yang et al. 2020, cited from earlier work; for Kd: read-out: Kd (μM), L-FABP binding affinity
[5] = 5μM through 120 hpf, malformation rate
[6] = zebrafish (Danio rerio), in vivo

Compound | Metabolites / hydrolysis products in zebrafish larvae (zebrafish larvae [1]) | pericardial oedemata, Mean (zebrafish embryos; [5]) [%] | spinal curvature, Mean (zebrafish embryos; [5]) [%] | tail dysplasia, Mean (zebrafish embryos; [5]) [%] | Mortality (%) (zebrafish embryos; 5 µM, exposure through 120 hpf) | BCF 0.5µM (zebrafish larvae [3]) | BCF 5µM (zebrafish larvae [3]) [L/kg] | Profile of metabolites (%): Alcohol (zebrafish larvae [1]) [%] | Peak intensity: Alcohol (parent FTOH) (zebrafish larvae [1]) | Kd [4] [µM] | other results
2,2-Difluoroethyl triflate [compound 13] | metabolites were not detected | 2.22 | 0.00 | 1.11 | 2.2 | – | – | – | – | – | concentration of corresponding hydrolysis product detected from parent PFAS, hCES1 [2]: 0 nM; concentration of corresponding hydrolysis product detected from parent PFAS, Control [2]: 0 nM; Concentration of hydrolysis product [2]: not detected
2-(Trifluoromethoxy)ethyl trifluoromethanesulfonate [compound 10] | metabolites were not detected | 2.22 | 1.11 | 0.00 | 0 | – | – | – | – | – | concentration of corresponding hydrolysis product detected from parent PFAS, hCES1 [2]: 0 nM; concentration of corresponding hydrolysis product detected from parent PFAS, Control [2]: 0 nM; Concentration of hydrolysis product [2]: not detected
C=C(C)C(=O)OCCC(F)(F)C(F)(F)C(F)(F)C(F)(F)C(F)(F)C(F)(F)F [compound 2, 6:2 Fluorotelomer methacrylate] | hydrolysis products (i.e., sulfated 6:2 FTOH) were also detected | 3.33 | 1.11 | 4.44 | 0 | – | – | – | – | – | –
CNS(=O)(=O)C(F)(F)C(F)(F)C(F)(F)C(F)(F)C(F)(F)C(F)(F)C(F)(F)C(F)(F)F [compound 16, N-Methylperfluorooctanesulfonamide] | – | 0.00 | 0.00 | 0.00 | – | 292.232 L/kg | 89 ± 9.4 | – | – | – | Parent PFAS, hCES1 (%) [2]: 89.36% and 92.00% and 92.59%; Parent PFAS, Control (%) [2]: 93.34% and 78.46% and 128.20%; Lethal effects on zebrafish larvae (zebrafish embryos): strongest lethal effects; L-FABP ligand [4]: not identified as L-FABP ligands
OCC(F)(F)OC(F)(F)C(F)(F)OC(F)(F)CO [compound 32, 1H,1H,8H,8H-Perfluoro-3,6-dioxaoctane-1,8-diol] | – | 1.11 | 0.00 | 1.11 | 3.3 | 5.939 L/kg | 8.4 ± 1.1 | 48.26 | 13344387 and 7489514 and 11717785 | – | BCF at 0.5μM compared with 5μM (zebrafish larvae [3]): comparable or even higher BCFs at 5μM
NS(=O)(=O)C(F)(F)C(F)(F)C(F)(F)C(F)(F)C(F)(F)C(F)(F)C(F)(F)C(F)(F)F [compound 60, Perfluorooctanesulfonamide] | – | 0.00 | 0.00 | 0.00 | 100 | 501 ± 19 L/kg and 501.032 L/kg | – | – | – | 5.87 | Parent PFAS, hCES1 (%) [2]: 83.48% and 89.94% and 97.43%; Parent PFAS, Control (%) [2]: 81.21% and 101.71% and 117.08%; Lethal effects on zebrafish larvae (zebrafish embryos): strongest lethal effects; Lethal effects on zebrafish larvae (zebrafish embryos; listed as PFOSA): no zebrafish larvae from the 5-μM group survived; also recorded: All zebrafish larvae were dead
O=C(/C=C(\O)C(F)(F)F)C(F)(F)F [compound 61, 3H-Perfluoro-4-hydroxy-3-penten-2-one] | – | – | – | – | – | – | 7.7 ± 2.3 | – | – | 135 | Mortality (%) (zebrafish embryos; [6]): 4.4; pericardial oedemata, Mean (zebrafish embryos; [6]): 0.00%; spinal curvature, Mean (zebrafish embryos; [6]): 0.00%; tail dysplasia, Mean (zebrafish embryos; [6]): 0.00%
OCC(F)(F)C(F)(F)C(F)(F)C(F)(F)C(F)(F)C(F)F [compound 67, Dodecafluoroheptanol] | – | 1.11 | 0.00 | 0.00 | 0 | – | – | 0.00 | 0 | – | –
OCCC(F)(F)C(F)(F)C(F)(F)C(F)(F)C(F)(F)C(F)(F)F [compound 70, 6:2 Fluorotelomer alcohol] | – | 0.00 | 0.00 | 0.00 | 0 | – | – | 0.00 | 0 | – | –
O=S(=O)(O)C(F)(F)C(F)(F)C(F)(F)C(F)(F)F [compound 73, Perfluorobutanesulfonic acid] | – | 0.00 | 1.11 | 0.00 | 5.6 | 2.903 L/kg | 2.8 ± 0.47 | – | – | 116 | –
